Format in all cases: cell-based
The test system of assay [1] is Human primary melanocytes. As to the kind of experiment: Melanin Content Assay (MCA). The note with it: for inhibition at 5000 µM / inhibition at 10000 µM: Homo sapiens, Melanocyte, 72 hours, vs untreated cells, read-out: % Inhibition in Melanin Synthesis (Mean ± SD); for inhibition at 5000 µM: 5 mM; for inhibition at 10000 µM: 10 mM. Here is the method:
Human primary melanocytes were grown in melanocytes growth medium (MGM) with human melanocyte growth supplement. 500 μL/well (5×10^4 cells/well) of this solution was plated in a 24 wells plate and incubated in an incubator (Thermo Scientific, Model 3111) at 37° C. with 5% CO2 atmosphere. After 24 hours of incubation, cell cultures were treated with the lead actives dissolved in water. The control was cells treated with the vehicle (water) alone. The cells were again incubated for 72 hours in an incubator (Thermo Scientific, Model 3111; conditions: 5% CO2, at 37° C.). At the end of the incubation the culture medium was replaced with 120μl/well of MCA reagent ([…] DMSO in 1N NaOH) and incubated for 1 hour at 60° C. in a shaker incubator. The supernatant was then transferred to a 384 well plate. The absorbance was measured spectrophotometric at 405 nm with a micro plate reader (GEnios Pro, Tecan). The spectrophotometric OD at 405 nm for untreated cells (NO active) was considered as 100% melanin content. In comparison to the untreated cells, the percentage inhibition of the treated cell samples were calculated.

In assay [2] the test system is human primary melanocytes and HaCat keratinocytes. As to the kind of experiment: Melanosome Transfer Assay (MTA), Example 3. The note with it: 72 hours co-culture; for % Inhibition in melanosome transfer: 15 mM; for inhibition at 5000 µM / inhibition at 10000 µM: Homo sapiens, HaCaT; for inhibition at 5000 µM: 5 mM; for inhibition at 10000 µM: 10 mM. Here is the method: 1.3×10^4 cells of human primary melanocytes (C-202-5C, Lonza) prepared in culture medium (MGM:KGM=1:1) and 2.6×10^4 HaCat keratinocytes prepared in culture medium (MGM:KGM=1:1) were mixed together and plated in a 48 well plate and incubated in an tissue culture tissue culture incubator (Thermo Scientific, Model 3111) at 37° C. with 5% CO2 atmosphere. After 4 hours of incubation, co-cultures were treated with the samples and again incubated for 72 hours in the same incubator under the same conditions. After culturing for required period (72 hours), the cells were prepared for flow cytometry analysis by following the procedure as set out below: • 1. Cells were isolated from 48 wells plate into a V-bottom plate (Torson, 941396) with 200 μl of trypsin EDTA buffer and the trypsin activity was neutralized with 200 μl of trypsin neutralizer and pelleted down to 350 g using a cold centrifuge (Plasto Crafts, Model no: Roat 4R-V/FM). • 2. To the pellet, 100 μl of 1% para-formaldehyde was added and incubated for 10 minutes on ice. • 3. Cells were then centrifuged (1000 G) with 100 μl of phosphate buffer saline (PBS) for 10 minutes and the pellet was used for staining with a solution as stated in below step 4. The PBS was prepared by adding 4 g sodium chloride, 0.1 g potassium chloride, 0.58 g disodium hydrogen phosphate and 0.1 g potassium dihydrogen phosphate into 500 ml of autoclaved Mili-Q water.
(§1) FACS buffer (Florescence activated cell sorter) was prepared by adding 0.1% Saponin and >0.05% (0.05% wt/volume) Fetal Bovine serum in PBS mixed with Alexa 488 conjugated goat anti-Trp1 antibody (TRP1 Alexa 488 (TRP1, tyrosinase related protein is an specific melanosome marker protein, Santacruz, catalog No: sc-10443) (1 μL/100 μL) and anti-pan cytokeratin antibody (pan cytokeratin, cytokeratin is a specific marker for keratinocytes) PE, Santacruz, catalog No: sc-8018) (1 μL/100 μL). The above mention FACS buffer was added to the pellet in each well (100 μL/well) and incubated for 60 minutes on ice. • 4. The cells were then washed with PBS and centrifuged down to ˜1000 G using a cold centrifuge (Plasto crafts, Roat 4R-V/FM) • 5. The cell pellets were suspended in PBS and transferred to round bottom 96 wells plate and analyzed by flow cytometry (BD Biosciences, Model—BD Facs calibur with BD HTS) Calculation of Melanosome Transfer (% Transfer):
Keratinocytes containing transferred melanosomes were detected by flow cytometry analysis.
The % transfer in untreated cells (NO active) was considered as 100%. In comparison to the untreated cells, the percentage transfer of the treated cell samples were calculated.

The test system is the same in assay [3]. The experiment in a line: Melanosome Transfer Assay (MTA), Example 2. As to conditions: 5 mM, 72 hours co-culture, read-out: % inhibition in keratinocytes containing melanosome (Mean ± SD). Here is the method:
1.3×10^4 cells of human primary melanocytes (C-202-5C, Lonza) prepared in culture medium (MGM:KGM=1:1) and 2.6×10^4 HaCat keratinocytes prepared in culture medium (MGM:KGM=1:1) were mixed together and plated in a 48 well plate and incubated in an tissue culture incubator (Thermo Scientific, Model 3111) at 37° C. with 5% CO2 atmosphere. After 4 hours of incubation, co-cultures were treated (added) with the samples and again incubated for 72 hours in the same incubator under the same conditions. After culturing for required period (72 hours), the cells were prepared for flow cytometry analysis by following the procedure as set out below: • 1. […]
as §1, with “FACS” for “FACS buffer”, “The above mention FACS buffer was added to the pellet in each well (100 μL/well) and incubated for 60 minutes on ice. • 4. The cells were then washed with PBS and centrifuged down to ˜1000 G using a cold centrifuge (Plasto crafts, Roat 4R-V/FM) • 5.” left out, “analysed” for “analyzed”, “Facscalibur” for “Facs calibur”, “Transfer): […]” for “Transfer):”

Structures are written as SMILES.

These results are taken from patent US10952952B2, “Skin lightening composition” (Conopco, Inc., priority 2015, dated 2021).

What is called inhibition is the change of the read-out against control, counted positive when it falls.

As for `NC(=O)c1ccccn1` [Picolinamide, pyridine 2-carboxamide], in assay [1], the inhibition at 5000 µM worked out at 14 ± 0.9% and the inhibition at 10000 µM was 23 ± 3.3%. Moreover, in assay [2], the “% Inhibition in melanosome transfer” value was “cell death”, the inhibition at 5000 µM was -8% and the inhibition at 10000 µM is 18%.
Turning to `NC(=O)c1cccnc1` [Niacinamide, pyridine-3-carboxamide], the inhibition at 5000 µM in assay [3] was 15.1 ± 0.4%. Further, in assay [1], the inhibition at 5000 µM amounted to 3 ± 0.4% and the inhibition at 10000 µM was determined as 8 ± 2.3%. The “reduction of melanin content in primary human melanocytes” value in assay [1] (niacinamide by itself, at 5 mM and 10 mM) is on record as “modest reduction”. For the same molecule, in assay [2], the “% Inhibition in melanosome transfer” value is listed as “cell death”, the inhibition at 5000 µM stood at 16.5% and the inhibition at 10000 µM was 25%.
